Assay results as given in patent US11603366B2, “Crystalline form and B crystalline form of pyrazine-2(1H)-ketone compound and preparation method thereof” (ZHANGZHOU PIEN TZE HUANG PHARMACEUTICAL CO., LTD., priority 2019, dated 2023).

Assay: Pharmacokinetic evaluation in mice, single intragastric administration
Format: in vivo, CD-1 mice (male)
Conditions: 300 mpk, male CD-1 mice, plasma
Method: Experimental Purposes: To Test the Pharmacokinetics of the Compound in Mice
CD-1 mice (male), vehicle (0.5% (w/v) methylcellulose 0.5% (v/v) Tween 80 aqueous solution), trifluoroacetate salt of compound 0027.
Animals in groups 1 and 2 were given 5 mg/mL and 30 mg/mL compound by single intragastric administration, respectively, with a dose volume of 10 mL/kg.
The animals were weighed before administration, and the administration volume was calculated according to the body weight.
Whole blood samples (30 μL) were collected at specified times (0.25, 0.5, 1, 2, 4, 6, 8, 24 hours) by saphenous vein collection and the actual time of collection was recorded in the test record. The acceptable error for the collection time points was ±1 minute for time points within 1 hour of administration and ±5% of the theoretical time for other time points.
All blood samples were immediately transferred to labeled commercial centrifuge tubes containing K2-EDTA. After blood samples were collected, the blood samples were centrifugated at 4° C. and 3200 rpm for 10 minutes, and the supernatant plasma was aspirated, and then quickly put into dry ice at a temperature of −20° C. or lower for LC-MS/MS analysis. And the pharmacokinetic parameters were calculated, and experimental result: See Table 5.

- Tlast: 24.0 h
SMILES: COc1cc(OC)c(Cl)c(-c2nc(-c3nc(-c4cn(C)nc4C)cnc3N)cn(C)c2=O)c1
